Reference: patent publication US11986532B2 (Arvinas Operations, Inc., priority 2021, dated 2024)

Target: T1, BCL6 (Homo sapiens, UniProt P41182)
T1 construct: endogenous in cells; host or cells: T47D breast cancer epithelial cells
Assay: Immunofluorescence protocol for high content imaging of BCL6 (degradation) in T47D cells, 3 days compound treatment
Assay type: cell-based
Conditions: T47D cells, 3 days compound treatment; for DC50: read-out: Mean DC50 (nM)* category; for Dmax: read-out: Mean Dmax (%)** category
Summary of the method: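 Cells are seeded to reach ~70-90% confluence at endpoint, then dosed next day with compound at a final top concentration of 0.1 or 1 μM (11 points, 3-fold). After 3 days, BCL6 is detected by immunofluorescence and quantified by high-content imaging.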

Work on CNC(=O)COc1cc2cc(Nc3nc(N4CCC(F)(CN5CCC6(CC5)CN(c5cccc7c5CN(C5CCC(=O)NC5=O)C7=O)C6)CC4)ncc3Cl)ccc2n(C(C)C)c1=O (stereo not shown) [Compound 52, 2-{[6-({5-chloro-2-[4-({2-[2-(2,6-dioxopiperidin-3-yl)-1-oxo-2,3-dihydro-1H-isoindol-4-yl]-2,7-diazaspiro[3.5]nonan-7-yl}methyl)-4-fluoropiperidin-1-yl]pyrimidin-4-yl}amino)-2-oxo-1-(propan-2-yl)-1,2-dihydroquinolin-3-yl]oxy}-N-methylacetamide] yielded a DC50 of less than 10 nM and a Dmax of no less than 70%.
CNC(=O)COc1cc2cc(Nc3nc(N4CCC(C(C)(C)N5CCC6(CCN(c7ccc8c(c7)CN(C7CCC(=O)NC7=O)C8=O)C6)C5)CC4)ncc3Cl)ccc2n(C(C)C)c1=O (stereo not shown) [Compound 53] gave a DC50 of less than 10 nM and a Dmax of 50 to 70%.
With CNC(=O)COc1cc2cc(Nc3nc(N4CCC(CN5CC6(CCN(c7ccc8c(c7)CN(C7CCC(=O)NC7=O)C8=O)C6)CC5=O)CC4)ncc3Cl)ccc2n(C(C)C)c1=O (stereo not shown) [Compound 54, 2-{[6-({5-chloro-2-[4-({7-[2-(2,6-dioxopiperidin-3-yl)-1-oxo-2,3-dihydro-1H-isoindol-5-yl]-3-oxo-2,7-diazaspiro[4.4]nonan-2-yl}methyl)piperidin-1-yl]pyrimidin-4-yl}amino)-2-oxo-1-(propan-2-yl)-1,2-dihydroquinolin-3-yl]oxy}-N-methylacetamide] the DC50 was less than 10 nM and the Dmax was less than 50%.
CC(C)n1c(=O)c(OCC(=O)N(C)C)cc2cc(Nc3nc(N4CCC(CN5CCC6(CC5)CN(c5ccc7c(c5)C(=O)N(C5CCC(=O)NC5=O)C7=O)C6)CC4)ncc3Cl)ccc21 (stereo not shown) [Compound 55, 2-{[6-({5-chloro-2-[4-({2-[2-(2,6-dioxopiperidin-3-yl)-1,3-dioxo-2,3-dihydro-1H-isoindol-5-yl]-2,7-diazaspiro[3.5]nonan-7-yl}methyl)piperidin-1-yl]pyrimidin-4-yl}amino)-2-oxo-1-(propan-2-yl)-1,2-dihydroquinolin-3-yl]oxy}-N,N-dimethylacetamide] showed a DC50 of no less than 100 nM and a Dmax of no less than 70%.
Compound CCNC(=O)COc1cc2cc(Nc3nc(N4CCC(CN5CCC6(CC5)CN(c5ccc7c(c5)C(=O)N(C5CCC(=O)NC5=O)C7=O)C6)CC4)ncc3Cl)ccc2n(C(C)C)c1=O (stereo not shown) [Compound 56, 2-{[6-({5-chloro-2-[4-({2-[2-(2,6-dioxopiperidin-3-yl)-1,3-dioxo-2,3-dihydro-1H-isoindol-5-yl]-2,7-diazaspiro[3.5]nonan-7-yl}methyl)piperidin-1-yl]pyrimidin-4-yl}amino)-2-oxo-1-(propan-2-yl)-1,2-dihydroquinolin-3-yl]oxy}-N-ethylacetamide] has a DC50 of no less than 100 nM and a Dmax of no less than 70%.
Work on CNC(=O)COc1cc2cc(Nc3nc(N4CCC(CN5CCC6(CC5)CN(c5ccc7c(c5)C(=O)N(C5CCC(=O)NC5=O)C7=O)C6)CC4)ncc3F)ccc2n(C(C)C)c1=O (stereo not shown) [Compound 57, 2-{[6-({2-[4-({2-[2-(2,6-dioxopiperidin-3-yl)-1,3-dioxo-2,3-dihydro-1H-isoindol-5-yl]-2,7-diazaspiro[3.5]nonan-7-yl}methyl)piperidin-1-yl]-5-fluoropyrimidin-4-yl}amino)-2-oxo-1-(propan-2-yl)-1,2-dihydroquinolin-3-yl]oxy}-N-methylacetamide] yielded a DC50 of 10 to 50 nM and a Dmax of 50 to 70%.
CNC(=O)COc1cc2cc(Nc3nc(N4CCC(C(C)(C)N5CCC6(CC5)CN(c5ccc7c(c5)CN(C5CCC(=O)NC5=O)C7=O)C6)CC4)ncc3Cl)ccc2n(C(C)C)c1=O (stereo not shown) [Compound 58, 2-{[6-({5-chloro-2-[4-(2-{2-[2-(2,6-dioxopiperidin-3-yl)-1-oxo-2,3-dihydro-1H-isoindol-5-yl]-2,7-diazaspiro[3.5]nonan-7-yl}propan-2-yl)piperidin-1-yl]pyrimidin-4-yl}amino)-2-oxo-1-(propan-2-yl)-1,2-dihydroquinolin-3-yl]oxy}-N-methylacetamide] gave a DC50 of less than 10 nM and a Dmax of no less than 70%.
Work on CNC(=O)COc1cc2cc(Nc3nc(N4CCC(C(C)(C)N5CCC6(CC5)CN(c5cccc7c5CN(C5CCC(=O)NC5=O)C7=O)C6)CC4)ncc3Cl)ccc2n(C(C)C)c1=O (stereo not shown) [Compound 59, 2-{[6-({5-chloro-2-[4-(2-{2-[2-(2,6-dioxopiperidin-3-yl)-1-oxo-2,3-dihydro-1H-isoindol-4-yl]-2,7-diazaspiro[3.5]nonan-7-yl}propan-2-yl)piperidin-1-yl]pyrimidin-4-yl}amino)-2-oxo-1-(propan-2-yl)-1,2-dihydroquinolin-3-yl]oxy}-N-methylacetamide] yielded a DC50 of less than 10 nM and a Dmax of 50 to 70%.
Compound CNC(=O)COc1cc2cc(Nc3nc(N4CCC(CN5CCC6(CCN(c7ccc8c(c7)CN(C7CCC(=O)NC7=O)C8=O)C6)C5=O)CC4)ncc3Cl)ccc2n(C(C)C)c1=O (stereo not shown) [Compound 60, 2-{[6-({5-chloro-2-[4-({7-[2-(2,6-dioxopiperidin-3-yl)-1-oxo-2,3-dihydro-1H-isoindol-5-yl]-1-oxo-2,7-diazaspiro[4.4]nonan-2-yl}methyl)piperidin-1-yl]pyrimidin-4-yl}amino)-2-oxo-1-(propan-2-yl)-1,2-dihydroquinolin-3-yl]oxy}-N-methylacetamide] has a DC50 of less than 10 nM and a Dmax of 50 to 70%.
In the case of CNC(=O)COc1cc2cc(Nc3nc(N4CCC(OC5CCC6(CC5)CN(c5cccc7c5CN(C5CCC(=O)NC5=O)C7=O)C6)CC4)ncc3Cl)ccc2n(C(C)C)c1=O (stereo not shown) [Compound 61, 2-{[6-({5-chloro-2-[4-({2-[2-(2,6-dioxopiperidin-3-yl)-1-oxo-2,3-dihydro-1H-isoindol-4-yl]-2-azaspiro[3.5]nonan-7-yl}oxy)piperidin-1-yl]pyrimidin-4-yl}amino)-2-oxo-1-(propan-2-yl)-1,2-dihydroquinolin-3-yl]oxy}-N-methylacetamide], the DC50 is reported as less than 10 nM and the Dmax is reported as 50 to 70%.
CNC(=O)COc1cc2cc(Nc3nc(N4CCC(F)(CN5CCC6(CC5)CCN(c5cccc7c5C(=O)N(C5CCC(=O)NC5=O)C7=O)CC6)CC4)ncc3Cl)ccc2n(C(C)C)c1=O (stereo not shown) [Compound 62, 2-{[6-({5-chloro-2-[4-({9-[2-(2,6-dioxopiperidin-3-yl)-1,3-dioxo-2,3-dihydro-1H-isoindol-4-yl]-3,9-diazaspiro[5.5]undecan-3-yl}methyl)-4-fluoropiperidin-1-yl]pyrimidin-4-yl}amino)-2-oxo-1-(propan-2-yl)-1,2-dihydroquinolin-3-yl]oxy}-N-methylacetamide] showed a DC50 of less than 10 nM and a Dmax of no less than 70%.
CNC(=O)COc1cc2cc(Nc3nc(N4CCC5(CCN(CC6(F)CCN(c7cccc8c7C(=O)N(C7CCC(=O)NC7=O)C8=O)CC6)CC5)CC4)ncc3Cl)ccc2n(C(C)C)c1=O (stereo not shown) [Compound 63, 2-{[6-({5-chloro-2-[9-({1-[2-(2,6-dioxopiperidin-3-yl)-1,3-dioxo-2,3-dihydro-1H-isoindol-4-yl]-4-fluoropiperidin-4-yl}methyl)-3,9-diazaspiro[5.5]undecan-3-yl]pyrimidin-4-yl}amino)-2-oxo-1-(propan-2-yl)-1,2-dihydroquinolin-3-yl]oxy}-N-methylacetamide] showed a DC50 of 10 to 50 nM and a Dmax of 50 to 70%.
Work on CNC(=O)COc1cc2cc(Nc3nc(N4CCC(CN5CCC6(CC5)CN(c5cc7c(cc5F)C(=O)N(C5CCC(=O)NC5=O)C7)C6)CC4)ncc3Cl)ccc2n(C(C)C)c1=O (stereo not shown) [Compound 64, 2-{[6-({5-chloro-2-[4-({2-[2-(2,6-dioxopiperidin-3-yl)-6-fluoro-1-oxo-2,3-dihydro-1H-isoindol-5-yl]-2,7-diazaspiro[3.5]nonan-7-yl}methyl)piperidin-1-yl]pyrimidin-4-yl}amino)-2-oxo-1-(propan-2-yl)-1,2-dihydroquinolin-3-yl]oxy}-N-methylacetamide] yielded a DC50 of less than 10 nM and a Dmax of 50 to 70%.
Work on CNC(=O)COc1cc2cc(Nc3nc(N4CCC(CN5CCC6(CC5)CN(c5ccc7c(c5)C(=O)N(C5CCC(=O)NC5=O)C7=O)C6=O)CC4)ncc3Cl)ccc2n(C(C)C)c1=O (stereo not shown) [Compound 65, 2-{[6-({5-chloro-2-[4-({2-[2-(2,6-dioxopiperidin-3-yl)-1,3-dioxo-2,3-dihydro-1H-isoindol-5-yl]-1-oxo-2,7-diazaspiro[3.5]nonan-7-yl}methyl)piperidin-1-yl]pyrimidin-4-yl}amino)-2-oxo-1-(propan-2-yl)-1,2-dihydroquinolin-3-yl]oxy}-N-methylacetamide] yielded a DC50 of no less than 100 nM and a Dmax of no less than 70%.
In the case of CNC(=O)COc1cc2cc(Nc3nc(N4CCN(C(=O)C5CCC6(CCN(c7ccc8c(c7)CN(C7CCC(=O)NC7=O)C8=O)C6)C5)CC4)ncc3Cl)ccc2n(C(C)C)c1=O (stereo not shown) [Compound 66, 2-[(6-{[5-chloro-2-(4-{2-[2-(2,6-dioxopiperidin-3-yl)-1-oxo-2,3-dihydro-1H-isoindol-5-yl]-2-azaspiro[4.4]nonane-7-carbonyl}piperazin-1-yl)pyrimidin-4-yl]amino}-2-oxo-1-(propan-2-yl)-1,2-dihydroquinolin-3-yl)oxy]-N-methylacetamide], the DC50 is reported as less than 10 nM and the Dmax is reported as less than 50%.
Compound CNC(=O)COc1cc2cc(Nc3nc(N4CCN(CC5CCN(c6ccc7c(c6)CN(C6CCC(=O)NC6=O)C7=O)CC5)CC4)ncc3Cl)ccc2n(C)c1=O (stereo not shown) [Compound 67, 2-{[6-({5-chloro-2-[4-({1-[2-(2,6-dioxopiperidin-3-yl)-1-oxo-2,3-dihydro-1H-isoindol-5-yl]piperidin-4-yl}methyl)piperazin-1-yl]pyrimidin-4-yl}amino)-1-methyl-2-oxo-1,2-dihydroquinolin-3-yl]oxy}-N-methylacetamide] has a DC50 of less than 10 nM and a Dmax of 50 to 70%.
CNC(=O)COc1cc2cc(Nc3nc(N4CCN(C(C)(C)C5CCN(c6cc7c(cc6F)C(=O)N(C6CCC(=O)NC6=O)C7)CC5)CC4)ncc3Cl)ccc2n(C(C)C)c1=O (stereo not shown) [Compound 68, 2-{[6-({5-chloro-2-[4-(2-{1-[2-(2,6-dioxopiperidin-3-yl)-6-fluoro-1-oxo-2,3-dihydro-1H-isoindol-5-yl]piperidin-4-yl}propan-2-yl)piperazin-1-yl]pyrimidin-4-yl}amino)-2-oxo-1-(propan-2-yl)-1,2-dihydroquinolin-3-yl]oxy}-N-methylacetamide] gave a DC50 of less than 10 nM and a Dmax of 50 to 70%.
